Measured values: patent US20240239763A1, “CRYSTAL FORM OF THIOPHENE DERIVATIVE AND PREPARATION METHOD THEREFOR” (DONGBAO PURPLE STAR (HANGZHOU) BIOPHARMACEUTICAL CO., LTD., priority 2021, published 2024)

Key:
[1] = Hygroscopicity study by dynamic vapor sorption (DVS); assay type: physicochemical; conditions: 25° C. and 80% RH
Protocol: Instrument model: Intrinsic dynamic vapor sorption analyzer Test conditions: A sample (10 to 30 mg) is taken and placed in a DVS sample tray for testing.
Detailed parameters for DVS are as follows:
Equilibrium: dm/dt=0.002%/min (minimum: 10 minutes, maximum: 180 minutes)
RH (%) test increment range: 0% to 95% to 0%
DVS Intrinsic dynamic vapor sorption analyzer
in a DVS sample tray for testing.

[2] = Solid-state stability test of crystal form C; assay type: physicochemical; conditions: for Content / purity: crystal form C
Protocol: They were separately placed under stability conditions of high temperature (60° C.), high humidity (25° C./92.5% humidity), combined high temperature and high humidity (40° C./75% humidity), and light exposure. For the sample placed under high temperature and high humidity, the bottle was sealed with aluminum foil, with small holes punctured in the aluminum foil to ensure that the samples could fully contact the ambient air; the sample placed under strong light exposure was sealed with a quartz glass cap. […] The samples placed under combined high temperature and high humidity (40° C./75% humidity) were taken for testing in the 1st, 2nd, and 3rd months (appearance, related substances, and content). The samples placed under light exposure conditions were taken for testing when the total illuminance reached 1.2×10^6 Lux•hr.

[3] = Hepatic metabolic stability (HMS) in rat liver cells; assay type: in vitro ADME; conditions: hepatocytes (liver cells) in suspension, read-out: Hepatic intrinsic clearance rates
Protocol: (§1) To test the metabolic stability of the test compound in human and rat liver cells.
(§2) 2.1 Test Compound (10 mM), controls: 7-Ethoxycoumarin (30 mM), 7-Hydroxycoumarin (control, 30 mM)
(§3) 1) A 30 mM solution was prepared by dissolving a precise amount of the positive control compound in dimethyl sulfoxide (DMSO).
(§4) 2) In a 96-well plate, the 10 mM test compound and 30 mM positive control compound were diluted to 1 mM and 3 mM, respectively, using DMSO.
(§5) 3) Acetonitrile was used to further dilute the 1 mM test compound and 3 mM positive control compound to quantification solutions with final concentrations of 100 μM and 300 μM, respectively.
(§6) 4) The stored cells were thawed, separated, and suspended in culture mediums. These cells were then diluted to a concentration of 0.5×10^6 cells/mL using pre-warmed culture mediums.
(§7) 5) In the 96-well plate, 198 μL of the pre-warmed cell suspension was added. […]
(§8) Through the following formula, the residual rates for the test compound and the control compound were calculated.
(§9) The elimination rate constant k for the test compound and control compound in hepatocytes was calculated by plotting the logarithm of the residual rate against time. The half-life (T1/2) and intrinsic clearance rate (CLint) were determined based on the elimination rate constant k. […]

CYP2D6 = CYP2D6 (Homo sapiens (Human), UniProt P10635); experiment: Cytochrome P450 isoenzyme inhibition, human liver microsomes; assay type: in vitro ADME; conditions: read-out: Cytochrome P450 isoenzymes IC50, CYP2D6
Sequence of CYP2D6 (P10635 whole entry): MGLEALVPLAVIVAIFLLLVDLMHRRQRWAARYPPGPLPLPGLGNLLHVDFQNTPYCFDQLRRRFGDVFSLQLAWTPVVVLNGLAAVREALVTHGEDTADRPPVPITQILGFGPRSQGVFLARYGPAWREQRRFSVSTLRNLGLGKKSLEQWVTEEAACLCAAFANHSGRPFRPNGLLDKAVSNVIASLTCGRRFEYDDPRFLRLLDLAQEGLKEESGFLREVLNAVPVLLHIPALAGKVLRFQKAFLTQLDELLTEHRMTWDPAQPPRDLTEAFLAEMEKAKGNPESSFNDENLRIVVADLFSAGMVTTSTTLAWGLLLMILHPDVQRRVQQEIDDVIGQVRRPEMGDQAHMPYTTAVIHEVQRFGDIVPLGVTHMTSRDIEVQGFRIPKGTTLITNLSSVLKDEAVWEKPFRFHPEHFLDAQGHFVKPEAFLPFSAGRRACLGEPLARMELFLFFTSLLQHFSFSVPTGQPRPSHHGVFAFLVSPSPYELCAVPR
Protocol: (§10) To determine the inhibitory activity of the test compound against different subtypes of human cytochrome P450 isoenzymes. Test compounds, standard inhibitors (at 100× final concentration), and mixed substrate working solutions were prepared; the microsomes (purchased from Corning Inc.) stored at −80° C. were taken out and thawed. To the corresponding wells were added 20 μL of the test compound and standard inhibitor solutions. Meanwhile, 20 μL of the respective solvent was added to the No Inhibitor Control (NIC) and blank control wells. Next, 20 μL of mixed substrate solution was added to the corresponding wells, except the blank wells where 20 μL of phosphate buffer (PB) was added. A human liver microsome solution was prepared (immediately returned to the fridge after the date of use was marked). Then, 158 μL of this solution was added to all the wells. The sample plate was placed in a 37° C. water bath for pre-incubation. A co-enzyme factor (NADPH) solution was then promptly prepared. After 10 minutes, 20 μL of NADPH solution was added to all wells. The sample plate was shaken to mix and placed back into a 37° C. water bath for an additional 10 minutes of incubation. At the respective time points, the reaction was terminated by adding 400 μL of cold acetonitrile solution (internal standard at 200 ng/ml of tolbutamide and labetalol). The sample plate was mixed thoroughly and was then centrifuged at 4000 rpm for 20 minutes to precipitate proteins. 200 μL of the supernatant was taken and mixed with 100 μL of water, after which it was sent for LC/MS/MS analysis.

CYP2C19 = CYP2C19 (Homo sapiens (Human), UniProt P33261); experiment: as above; assay type: in vitro ADME; conditions: read-out: Cytochrome P450 isoenzymes IC50, CYP2C19
Sequence of CYP2C19 (P33261 whole entry): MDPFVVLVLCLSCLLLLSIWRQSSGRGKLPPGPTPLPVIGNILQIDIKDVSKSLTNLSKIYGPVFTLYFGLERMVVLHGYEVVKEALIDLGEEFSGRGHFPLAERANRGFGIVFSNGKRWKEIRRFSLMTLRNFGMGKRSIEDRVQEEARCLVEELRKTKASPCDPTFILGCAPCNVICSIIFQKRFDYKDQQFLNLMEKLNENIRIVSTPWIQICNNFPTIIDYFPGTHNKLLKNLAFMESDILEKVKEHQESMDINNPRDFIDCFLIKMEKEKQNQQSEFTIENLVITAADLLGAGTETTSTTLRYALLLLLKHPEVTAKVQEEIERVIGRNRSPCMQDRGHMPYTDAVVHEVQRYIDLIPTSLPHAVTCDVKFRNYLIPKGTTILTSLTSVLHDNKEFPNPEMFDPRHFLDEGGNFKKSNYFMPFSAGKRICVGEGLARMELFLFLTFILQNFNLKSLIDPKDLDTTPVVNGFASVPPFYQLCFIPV
Protocol: as §10

CYP3A4-M = CYP3A4-M (Homo sapiens (Human), UniProt P08684); experiment: as above; assay type: in vitro ADME; conditions: read-out: Cytochrome P450 isoenzymes IC50, CYP3A4-M
Sequence of CYP3A4-M (P08684 whole entry): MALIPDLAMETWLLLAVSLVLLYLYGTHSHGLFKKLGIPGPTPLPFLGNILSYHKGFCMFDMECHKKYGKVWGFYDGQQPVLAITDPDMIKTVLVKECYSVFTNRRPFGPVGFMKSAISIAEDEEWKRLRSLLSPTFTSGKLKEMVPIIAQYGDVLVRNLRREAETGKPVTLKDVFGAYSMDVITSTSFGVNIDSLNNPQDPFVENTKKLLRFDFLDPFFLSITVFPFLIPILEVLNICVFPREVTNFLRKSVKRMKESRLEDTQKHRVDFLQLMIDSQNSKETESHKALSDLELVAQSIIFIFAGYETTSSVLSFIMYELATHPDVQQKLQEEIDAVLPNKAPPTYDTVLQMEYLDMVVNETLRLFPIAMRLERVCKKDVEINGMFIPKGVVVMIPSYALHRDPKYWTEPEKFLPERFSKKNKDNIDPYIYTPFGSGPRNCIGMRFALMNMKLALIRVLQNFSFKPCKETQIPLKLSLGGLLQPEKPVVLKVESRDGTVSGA
Protocol: as §10

CYP2C9 = CYP2C9 (Homo sapiens (Human), UniProt P11712); experiment: as above; assay type: in vitro ADME; conditions: read-out: Cytochrome P450 isoenzymes IC50, CYP2C9
Sequence of CYP2C9 (P11712 whole entry): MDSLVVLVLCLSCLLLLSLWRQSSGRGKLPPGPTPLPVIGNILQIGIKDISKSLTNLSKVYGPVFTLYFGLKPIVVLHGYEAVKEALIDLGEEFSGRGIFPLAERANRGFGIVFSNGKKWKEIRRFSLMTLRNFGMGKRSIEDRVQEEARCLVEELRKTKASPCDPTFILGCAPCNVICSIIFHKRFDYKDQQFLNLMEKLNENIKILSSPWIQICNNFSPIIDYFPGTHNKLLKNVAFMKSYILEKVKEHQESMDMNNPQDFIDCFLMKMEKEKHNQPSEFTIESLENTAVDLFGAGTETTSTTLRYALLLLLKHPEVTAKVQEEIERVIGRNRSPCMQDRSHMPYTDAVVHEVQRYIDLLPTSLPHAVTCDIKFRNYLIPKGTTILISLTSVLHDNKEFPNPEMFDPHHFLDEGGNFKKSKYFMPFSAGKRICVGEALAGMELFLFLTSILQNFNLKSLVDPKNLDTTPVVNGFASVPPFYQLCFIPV
Protocol: as §10

[4] = Pharmacokinetics in SD rats in vivo; conditions: male, Sprague-Dawley, rat, plasma
Protocol: To test the pharmacokinetics of the compound in SD rats in vivo
Sprague Dawley rats (male, 180-350 g, 6 to 10 weeks of age, Beijing Vital River).
The solution was then filtered through a micropore membrane for later use. […] Six male SD rats were divided into two groups. […] In the second group, animals received a single oral gavage dose of the test compound at 10 mg/kg. […] Whole blood was centrifuged at 3200 g for 10 minutes at 4° C. to obtain plasma. The concentrations of the compound and uric acid (in the oral gavage group only) in the plasma were measured using the LC/MS/MS method. Pharmacokinetic parameters such as peak concentration, time to reach peak concentration, clearance rate, half-life, area under the curve, and bioavailability were calculated using Phoenix WinNonlin software.

[5] = Hepatic metabolic stability (HMS) in human liver cells; assay type: in vitro ADME; conditions: hepatocytes (liver cells) in suspension, read-out: Hepatic intrinsic clearance rates
Protocol: as §1, §2, §3, §4, §5, §6, §7, §8, §9

P-gp (human MDR1) = experiment: MDR1 membrane permeability test (bidirectional); assay type: in vitro ADME, canine; conditions: dog, MDR1-MDCK II
Protocol: MDR1-MDCK II cells are Madin-Darby canine kidney cells transfected with the human MDR1 gene, enabling stable high expression of P-gp. The purpose of the present study is to test the bidirectional permeability of the compound across the MDR1-MDCK II cell model and evaluate its potential for efflux transport.
MDR1-MDCK II cells (sourced from Piet Borst at the Netherlands Cancer Institute) were seeded on polyethylene terephthalate (PET) membranes in a 96-well insert system at a density of 2.5×10^5 cells/mL. The cells were cultured until they formed a confluent monolayer over 4-7 days.
Test compounds were diluted in transport buffer (HBSS containing 10 mM Hepes with DMSO, pH 7.4) to a concentration of 2 μM (DMSO<1%) and were applied to either the apical or basolateral side of the cell monolayer. […] Additionally, efflux ratios for each compound were measured, and both test and reference compounds were quantified, based on the peak area ratio of the analyte to IS by LC/MS/MS analysis. After the transport assay, the integrity of the cell monolayer was determined using a Lucifer Yellow exclusion assay. […] The relative fluorescence units (RFU) of […] were measured at 425/528 nm (excitation/emission) using an Envision microplate reader.
The apparent permeability coefficient (Papp, cm/s), efflux ratio, and recovery rate were calculated using the following formulas: […]

[6] = 2.89 mg/kg, 2.89 mpk/intravenous injection
[7] = 40° C., relative humidity of 75%, open-top, 1M
[8] = 40° C., relative humidity of 75%, open-top, 2M
[9] = 40° C., relative humidity of 75%, open-top, 3M
[10] = High humidity (25° C./relative humidity of 92.5%, open-top), 5 days
[11] = High humidity (25° C./relative humidity of 92.5%, open-top), 10 days
[12] = High humidity (25° C./relative humidity of 92.5%, open-top), 30 days
[13] = High temperature (60° C., open-top), 5 days
[14] = High temperature (60° C., open-top), 10 days
[15] = High temperature (60° C., open-top), 30 days
[16] = Light exposure (total illuminance: 1.2 × 10^6 Lux · hr/near ultraviolet: 200 w · hr/m^2), 5 days
[17] = Light exposure (total illuminance: 1.2 × 10^6 Lux · hr/near ultraviolet: 200 w · hr/m^2), 10 days

SMILES: N#Cc1sc(-c2ccc(C(=O)O)c(O)c2)c2c1CCC(F)(F)C2 [crystal form C]
- hygroscopicity classification [1]: no hygroscopicity
- ΔW (hygroscopic weight gain) [1]: 0.196%
- solid-state stability (in words) ([2]; high temperature, high humidity, strong light exposure, and accelerated conditions): good stability

SMILES: N#Cc1sc(-c2ccc(C(=O)O)c(O)c2)c2c1CCC(F)(F)C2 [Compound of formula (I)]
- CLint scaled at 1 µM [3]: 188 mL/min/kg
- IC50 (CYP2D6): > 50 µM
- IC50 (CYP2C19): > 50 µM
- IC50 (CYP3A4-M): > 50 µM
- IC50 (CYP2C9): 18.1 µM
- AUC(0-inf) [4, 6]: 41.8 µM·h
- C0 [4, 6]: 96.6 µM
- clearance [4, 6]: 3.59 mL/min/kg
- Vd ([4]; 2.89 mg/kg, 2.89 mpk/intravenous injection, read-out: Vdss): 0.32 L/kg
- AUC(0-inf) ([4]; 8.58 mg/kg, 8.58 mpk/oral): 86.6 µM·h
- Cmax ([4]; 8.58 mg/kg, 8.58 mpk/oral): 27.5 µM
- Tmax ([4]; 8.58 mg/kg, 8.58 mpk/oral): 0.5 h
- bioavailability ([4]; 8.58 mg/kg, 8.58 mpk/oral): 62.1%
- half-life ([4]; 8.58 mg/kg, 8.58 mpk/oral): 2.47 h
- CLint scaled at 1 µM [5]: 31.8 mL/min/kg
- Content ([2]; 0 days (initial)): 98.1%
- purity ([2]; 0 days (initial)): 98.84%
- Content [2, 7]: 97.8%
- purity [2, 7]: 98.83%
- Content [2, 8]: 97.8%
- purity [2, 8]: 99.02%
- Content [2, 9]: 97.8%
- purity [2, 9]: 98.86%
- Content [2, 10]: 97.9%
- purity [2, 10]: 98.90%
- Content [2, 11]: 97.9%
- purity [2, 11]: 98.90%
- Content [2, 12]: 97.9%
- purity [2, 12]: 98.80%
- Content [2, 13]: 98.5%
- purity [2, 13]: 98.94%
- Content [2, 14]: 98.3%
- purity [2, 14]: 98.95%
- Content [2, 15]: 98.1%
- purity [2, 15]: 98.87%
- Content [2, 16]: 97.6%
- purity [2, 16]: 98.89%
- Content [2, 17]: 98.0%
- purity [2, 17]: 98.91%
- Papp A→B at […], 2 µM (P-gp (human MDR1); pH 7.4, A-to-B): 26.4 ×10⁻⁶ cm/s
- Papp B→A at […], 2 µM (P-gp (human MDR1); pH 7.4, B-to-A): 6.63 ×10⁻⁶ cm/s
